Ends that are not written are not given here.
Tests used:
[1] = system: MB49 bladder carcinoma cell line; test: Peptide uptake by MB49 bladder carcinoma cells; format: cell-based, murine
Method: An MB49 bladder carcinoma cell line was maintained in full Dulbecco's modified Eagle's medium (DMEM) with antibiotics and L-glutamine. Cells were seeded on 24 well plates for at least 24 hours to allow the cells to grow to confluence; each sample was done in triplicate. Samples were then incubated with one of free CGKRK (SEQ ID NO:1) and KAREC (SEQ ID NO:2), micelles of these two peptides, fluorescence TAT peptide (positive control), and PBS (negative control). After the incubation, all wells were washed with PBS three times to remove any free fluorescence molecules. Cells were detached from the wells with trypsin at 37° C. for 5 minutes. 0.3% Triton X-100 in PBS was added to the cells, and after 30 minutes of incubation, the solutions were centrifugated in an Eppendorf microcentrifuge at 15,000 rpm. The fluorescence intensity of the supernatant was measured using a fluorescence plate reader. For confocal imaging, cells were grown on glass chamber slides. Following the incubation experiment, cells were imaged with a Nikon MR Confocal STORM super-resolution microscope.

[2] = Peptide binding to heparin-coated wells; conditions: FIG. 5B
Method: (§1) The peptides CGKRK (SEQ ID NO:1) and KAREC (SEQ ID NO:2) were diluted two-fold in PBS at different concentrations and added to collagen- and heparin-coated wells preblocked with 5% bovine serum albumin. The plates were incubated at room temperature for 1 hour, washed 4 times with 200 μL PBS, and scanned at […] of 485 and 515 nm using a SpectraMax M5 fluorescence plate reader. The PBS background was subtracted from the data points, and the data were plotted with Prism.

[3] = target: collagen type I (Homo sapiens, UniProt P02452+P08123); test: Peptide binding to collagen-coated wells; conditions: FIG. 5C
Method: as §1

[4] = system: bladder urothelium; test: Intravesical peptide binding to the mouse bladder with or without injury (in situ imaging, histology); format: in vivo, mice; conditions: for Binding in the bladder, in situ images: 15 minutes incubation; for Histological analysis of binding, entire bladder: 2× magnification
Method: Eight-to twelve-week-old female mice were anesthetized with isoflurane using a vaporizer machine at a flow rate of 1-3 L/min. The mice were placed on their backs and their urethra openings were pulled forward while squeezing the bladder to express urine. A lubricated 24 G Angiocath catheter with no needle was inserted via the urethra into the bladder cavity to wash the bladder once with […] PBS. To imitate a bladder injury subsequent to bladder cancer surgery, in which the urothelium is damaged after the removal of cancer tissues, the catheter tip was inserted completely and five circular motions were made in the apical part of the bladder. A 1 mL syringe with 100 μL of a CGKRK peptide (SEQ ID NO:1) solution (0.3 mg/mL in 80% PBS/20% DMSO) was attached to the catheter, and approximately 50 μL of the solution was injected into the bladder until the bladder was completely distended, as determined by abdominal palpitation. The catheter with attached syringe was left in the bladder for 15 minutes. After incubation, the peptide was removed via negative pressure, and the bladder was washed 5 times with PBS, with complete filling of the bladder each time. A Dino-Lite AM4113T-GRFBY camera equipped with 480- and 570-nm excitation filters and 510- and 610-nm long pass emission filters was used to take images of the bladder in situ. The abdominal cavity was opened by incision, and the bladder was imaged at 20 to 40 times magnification. The images were acquired at 1280×1024 resolution.
Freshly removed bladders were washed in PBS and snap frozen in liquid nitrogen. The tissue was embedded in optical cutting temperature (OCT) media and cryosectioned in consecutive 7-μm steps so that alternating sections were mounted on slides for fluorescence imaging and hematoxylin-eosin (H&E) staining, respectively. The tissues on each slide were fixed in a 10% buffered formalin solution, mounted with Vectashield™ antifade mounting medium with DAPI (for fluorescence imaging) or Permount™ medium (for H&E staining), and covered with a coverslip. The bladders imaged with a Nikon E600 upright fluorescence microscope with a SPOT RT color camera. The images in each fluorescence channel were acquired under saturation as 12-bit gray TIFF files, and H&E images were acquired as RGB images. Each low-magnification image covering the entire bladder area was analyzed with ImageJ software. The background was subtracted, and the integrated gray density per image was calculated. The intensities were plotted as individual values using Prism software.
Referring now to FIGS. 6A and 6B, the effect of mechanical injury on accumulation of peptides in the bladder is illustrated. Mice were treated by washing the bladder and inducing injury to the mucosal surface of the bladder; the peptide was then injected into the bladder and incubated 15 minutes; the bladder was then washed 5 times. […] The arrows in FIGS. 6A and 6B indicate the apical region of the bladder.
An investigation of the mechanisms of injury-induced accumulation of CGKRK (SEQ ID NO:1) was conducted. CGKRK (SEQ ID NO:1) was mixed with EDTA-treated blood and administered intravesically. […] Mice were pretreated with the anti-inflammatory agent dexamethasone prior to injury.

collagen type I, sequence (P02452 162-1218 limits assumed): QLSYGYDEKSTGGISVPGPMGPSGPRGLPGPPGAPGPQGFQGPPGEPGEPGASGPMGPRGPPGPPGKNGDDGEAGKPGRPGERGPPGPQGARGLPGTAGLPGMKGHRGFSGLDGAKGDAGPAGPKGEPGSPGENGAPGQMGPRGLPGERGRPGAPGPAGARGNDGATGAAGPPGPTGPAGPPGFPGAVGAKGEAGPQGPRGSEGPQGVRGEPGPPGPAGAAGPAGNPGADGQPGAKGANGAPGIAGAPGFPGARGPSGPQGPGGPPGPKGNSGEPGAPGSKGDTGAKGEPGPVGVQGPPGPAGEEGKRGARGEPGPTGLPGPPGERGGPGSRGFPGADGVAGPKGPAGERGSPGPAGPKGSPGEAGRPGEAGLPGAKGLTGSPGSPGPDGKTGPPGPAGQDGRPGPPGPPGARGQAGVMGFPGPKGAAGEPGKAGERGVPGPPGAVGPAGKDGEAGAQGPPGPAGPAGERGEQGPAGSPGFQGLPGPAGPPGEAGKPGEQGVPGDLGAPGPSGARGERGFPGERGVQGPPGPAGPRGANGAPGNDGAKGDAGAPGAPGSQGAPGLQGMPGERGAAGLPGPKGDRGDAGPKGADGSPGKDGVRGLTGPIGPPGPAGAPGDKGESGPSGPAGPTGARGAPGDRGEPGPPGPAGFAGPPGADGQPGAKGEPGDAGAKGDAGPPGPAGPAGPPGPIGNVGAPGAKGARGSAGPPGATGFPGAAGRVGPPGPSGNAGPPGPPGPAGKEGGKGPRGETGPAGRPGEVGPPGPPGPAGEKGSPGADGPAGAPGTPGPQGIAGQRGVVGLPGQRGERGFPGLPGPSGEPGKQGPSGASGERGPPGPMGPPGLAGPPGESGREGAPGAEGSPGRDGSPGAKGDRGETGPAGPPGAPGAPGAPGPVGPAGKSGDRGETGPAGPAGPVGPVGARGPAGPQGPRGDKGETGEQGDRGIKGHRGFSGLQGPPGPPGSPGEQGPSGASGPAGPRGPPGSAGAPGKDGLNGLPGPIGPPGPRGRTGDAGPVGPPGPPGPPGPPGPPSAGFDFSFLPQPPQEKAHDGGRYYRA
collagen type I, sequence (P08123 80-1119 limits assumed): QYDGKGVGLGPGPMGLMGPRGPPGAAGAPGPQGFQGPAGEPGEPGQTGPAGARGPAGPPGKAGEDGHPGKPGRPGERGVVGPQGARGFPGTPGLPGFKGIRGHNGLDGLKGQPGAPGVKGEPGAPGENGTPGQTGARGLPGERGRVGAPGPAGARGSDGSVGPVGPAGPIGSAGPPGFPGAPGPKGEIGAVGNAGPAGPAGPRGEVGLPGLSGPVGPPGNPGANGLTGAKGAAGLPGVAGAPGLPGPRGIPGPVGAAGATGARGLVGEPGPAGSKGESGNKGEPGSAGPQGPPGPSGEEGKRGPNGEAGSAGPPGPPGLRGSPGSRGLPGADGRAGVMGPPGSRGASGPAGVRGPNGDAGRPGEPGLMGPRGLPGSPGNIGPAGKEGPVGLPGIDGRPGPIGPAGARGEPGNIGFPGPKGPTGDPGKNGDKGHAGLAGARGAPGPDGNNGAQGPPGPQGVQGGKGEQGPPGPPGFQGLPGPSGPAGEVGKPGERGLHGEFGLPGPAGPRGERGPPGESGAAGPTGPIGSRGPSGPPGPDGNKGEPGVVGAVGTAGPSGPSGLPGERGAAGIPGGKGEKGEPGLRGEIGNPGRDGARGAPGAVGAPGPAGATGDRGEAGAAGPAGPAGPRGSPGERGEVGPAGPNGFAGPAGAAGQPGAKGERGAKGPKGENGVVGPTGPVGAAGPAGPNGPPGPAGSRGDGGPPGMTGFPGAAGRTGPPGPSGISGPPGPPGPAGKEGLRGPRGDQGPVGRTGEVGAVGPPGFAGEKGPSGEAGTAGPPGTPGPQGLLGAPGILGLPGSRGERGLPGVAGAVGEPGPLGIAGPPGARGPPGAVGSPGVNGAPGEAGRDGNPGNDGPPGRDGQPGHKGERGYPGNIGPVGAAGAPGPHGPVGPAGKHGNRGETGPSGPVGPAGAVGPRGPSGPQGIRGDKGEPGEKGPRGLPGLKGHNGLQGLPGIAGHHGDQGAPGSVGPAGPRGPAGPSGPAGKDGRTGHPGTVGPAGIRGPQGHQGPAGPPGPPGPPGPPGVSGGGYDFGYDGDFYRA

| Substance | Cellular uptake, accumulation in the cytoplasm (confocal images) [1] | Peptide uptake quantified by fluorescence spectroscopy ([1]; FIG. 5A, versus KAREC) | Kinetics of binding to heparin (curve fit) [2] | Binding to heparin ([2]; versus KAREC) | Kinetics of binding to collagen (curve fit) [3] | Binding to collagen type I ([3]; versus KAREC) | Accumulation after chemical disruption of the urothelium barrier with ethanol ([4]; 2× and 20× magnification) | Binding in the bladder, in situ images ([4]; absence of focal injury) | Binding in the bladder, in situ images ([4]; after mechanical injury) | Histological analysis of binding, entire bladder ([4]; injured bladder, FIG. 7) | Histological analysis of binding, tissue layers ([4]; injured bladder, 20× magnification, FIG. 7) | Injury-induced binding after dexamethasone pretreatment ([4]; mice pretreated with dexamethasone prior to injury) | Binding when mixed with EDTA-treated blood ([4]; no injury, intravesical) |
| --- | --- | --- | --- | --- | --- | --- | --- | --- | --- | --- | --- | --- | --- |
| CGKRK (also: fluorescent label) [cell-penetrating pentapeptide, fluorescently labelled in the tests] | significant accumulation | significantly more accumulation | linear kinetics for other binding | more efficient binding to both heparin and collagen type I | saturation kinetics | more efficient binding to both heparin and collagen type I | widespread accumulation | no binding | efficient binding after injury | widespread binding | accumulation of the peptide in the urothelium (U) and some penetration into the muscle layer (ML) | did not block injury-induced binding | Blood did not induce binding in the absence of injury |
| KAREC [comparison peptide tested beside CGKRK, reference compound] | – | – | linear kinetics for other binding | – | linear kinetics for other binding | – | – | – | limited binding at the injury site | less efficient and less widespread accumulation | – | – | – |
